Entries after “also recorded” stand apart in the source; their conditions may differ. Where a SMILES comes first, the peptide text is derived from it. Bridges are numbered along the chain shown (N, C = ends). Roman numbers before positions name the chains, in order. Where no end group is shown, it is not given here. [ ]: non-standard residue; d: D form.
Tests used:
CTLL-2 cells = assay: IL-15-induced CTLL-2 cell proliferation assay; format: cell-based; conditions: for IC50: fixed IL-15 concentration of 300 μg/mL, colorimetric assay
From the text: The proliferation of the CTLL-2 cell line is dependent on IL-15. Molecular entities that bind to IL-15 or its receptor subunit inhibit the proliferation of this cell line. To evaluate the antagonist capacity of peptides designed and obtained in the present invention, was followed the procedure described by Santos et al in 2012. Peptide 1 was included in all assays.
The realization of this colorimetric assay allowed calculating the IC50 value of each peptide, for a fixed IL-15 concentration of 300 μg/mL.

IL-15/IL-15Rα complex = target: T1, IL-15/IL-15Rα complex (Homo sapiens, UniProt Q13261); assay: Inhibition of IL-15/IL-15Rα complex formation (ELISA-type test); format: binding
T1 construct: all evaluated peptides recognized IL-15Rα immobilized on the ELISA plate
T1 sequence (Q13261 31-205 limits assumed, one chain of several): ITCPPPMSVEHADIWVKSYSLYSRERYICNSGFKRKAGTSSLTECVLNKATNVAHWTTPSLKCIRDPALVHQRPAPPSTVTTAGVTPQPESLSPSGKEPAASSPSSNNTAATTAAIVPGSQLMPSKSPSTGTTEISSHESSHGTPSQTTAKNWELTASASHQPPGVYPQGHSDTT
Experimental: Once the synthetic peptides were obtained and characterized, their binding capacity to IL-15Rα was determined. This evaluation was carried out by means of an ELISA type test. In addition, the % inhibition of the formation of the IL-15/IL-15Rα complex presented by each peptide was calculated. Both the procedure for the ELISA-type test and the equation used to calculate the % inhibition of the formation of the IL-15/IL-15Rα complex are detailed in the article published by Santos et al in 2012 (Santos A. et al. J. Pept. Sci. 2012; 18: 25-29).

[1] = Solubility of the peptides

Compound | IC50 (CTLL-2 cells) [µM] | % inhibition of IL-15/IL-15Rα complex formation (IL-15/IL-15Rα complex) [%] | solubility [1] | antagonist effect compared with Peptide 1 (CTLL-2 cells; IL-15-induced CTLL-2 proliferation)
CSCC[C@H](NC(=O)[C@@H](C)NC(=O)[C@@H](NC(=O)[C@@H](NC(=O)[C@@H](N)CCCCN)C(C)C)[C@@H](C)O)C(=O)N[C@@H](CCCCN)C(=O)N[C@@H](CS)C(=O)N[C@@H](Cc1ccccc1)C(=O)N[C@@H](CC(C)C)C(=O)N[C@@H](CC(C)C)C(N)=O [Peptide 5] (H-KVT[dA]MKCFLL-NH2) | 28 | 92 | completely soluble | 
CSCC[C@H](NC(=O)[C@H](C)NC(=O)[C@@H](NC(=O)[C@@H](NC(=O)[C@@H](N)CCCCN)C(C)C)[C@@H](C)O)C(=O)N[C@@H](CCCCN)C(=O)N[C@@H](CS)C(=O)N[C@@H](Cc1ccccc1)C(=O)N[C@H](CC(C)C)C(=O)N[C@@H](CC(C)C)C(N)=O [Peptide 10] (H-KVTAMKCF[dL]L-NH2) | 134 |  |  | 
CSCC[C@H](NC(=O)[C@H](C)NC(=O)[C@@H](NC(=O)[C@@H](NC(=O)[C@@H](N)CCCCN)C(C)C)[C@@H](C)O)C(=O)N[C@@H](CCCCN)C(=O)N[C@H](CS)C(=O)N[C@@H](Cc1ccccc1)C(=O)N[C@@H](CC(C)C)C(=O)N[C@@H](CC(C)C)C(N)=O [Peptide 8] (H-KVTAMK[dC]FLL-NH2) | 103 |  |  | 
CSCC[C@H](NC(=O)[C@H](C)NC(=O)[C@@H](NC(=O)[C@H](NC(=O)[C@@H](N)CCCCN)C(C)C)[C@@H](C)O)C(=O)N[C@@H](CCCCN)C(=O)N[C@@H](CS)C(=O)N[C@@H](Cc1ccccc1)C(=O)N[C@@H](CC(C)C)C(=O)N[C@@H](CC(C)C)C(N)=O [Peptide 3] (H-K[dV]TAMKCFLL-NH2) | 142 |  |  | 
CSCC[C@H](NC(=O)[C@H](C)NC(=O)[C@@H](NC(=O)[C@@H](NC(=O)[C@@H](N)CCCCN)C(C)C)[C@@H](C)O)C(=O)N[C@@H](CCCCN)C(=O)N[C@@H](CS)C(=O)N[C@@H](Cc1ccccc1)C(=O)N[C@@H](CC(C)C)C(=O)N[C@H](CC(C)C)C(N)=O [Peptide 11] (H-KVTAMKCFL[dL]-NH2) | 133 |  |  | 
CSCC[C@H](NC(=O)[C@@H](C)NC(=O)[C@@H](NC(=O)[C@@H](NC(=O)[C@@H](N)CCCCN)C(C)C)[C@@H](C)O)C(=O)N[C@@H](CCCCN)C(=O)N[C@@H](CSSC[C@H](NC(=O)[C@H](CCCCN)NC(=O)[C@H](CCSC)NC(=O)[C@@H](C)NC(=O)[C@@H](NC(=O)[C@@H](NC(=O)[C@@H](N)CCCCN)C(C)C)[C@@H](C)O)C(=O)N[C@@H](Cc1ccccc1)C(=O)N[C@@H](CC(C)C)C(=O)N[C@@H](CC(C)C)C(N)=O)C(=O)N[C@@H](Cc1ccccc1)C(=O)N[C@@H](CC(C)C)C(=O)N[C@@H](CC(C)C)C(N)=O [Peptide 12] (I: H-KVT[dA]MKCFLL-NH2 / II: H-KVT[dA]MKCFLL-NH2; disulfide I:7-II:7) | 8 | 96 | completely soluble | 
CSCC[C@H](NC(=O)[C@@H](C)NC(=O)[C@@H](NC(=O)[C@@H](NC(=O)[C@@H](N)CCCCN)C(C)C)[C@@H](C)O)C(=O)N[C@@H](CCCCN)C(=O)N[C@H](CS)C(=O)N[C@@H](Cc1ccccc1)C(=O)N[C@@H](CC(C)C)C(=O)N[C@@H](CC(C)C)C(N)=O [Peptide 15] (H-KVT[dA]MK[dC]FLL-NH2; N-terminus assumed) | 296 |  |  | equal or less antagonist effect than the original peptide; also recorded: less active than Peptide 1
CSCC[C@H](NC(=O)[C@@H](C)NC(=O)[C@@H](NC(=O)[C@@H](NC(=O)[C@H](N)CCCCN)C(C)C)[C@@H](C)O)C(=O)N[C@@H](CCCCN)C(=O)N[C@@H](CS)C(=O)N[C@@H](Cc1ccccc1)C(=O)N[C@@H](CC(C)C)C(=O)N[C@@H](CC(C)C)C(N)=O [Peptide 13] (H-[dK]VT[dA]MKCFLL-NH2) | 29 | 89 | completely soluble | 
CSCC[C@@H](NC(=O)[C@H](C)NC(=O)[C@@H](NC(=O)[C@@H](NC(=O)[C@@H](N)CCCCN)C(C)C)[C@@H](C)O)C(=O)N[C@@H](CCCCN)C(=O)N[C@@H](CS)C(=O)N[C@@H](Cc1ccccc1)C(=O)N[C@@H](CC(C)C)C(=O)N[C@@H](CC(C)C)C(N)=O [Peptide 6] (H-KVTA[dM]KCFLL-NH2) | 292 |  |  | 
CSCC[C@H](NC(=O)[C@H](C)NC(=O)[C@H](NC(=O)[C@@H](NC(=O)[C@@H](N)CCCCN)C(C)C)[C@H](C)O)C(=O)N[C@@H](CCCCN)C(=O)N[C@@H](CS)C(=O)N[C@@H](Cc1ccccc1)C(=O)N[C@@H](CC(C)C)C(=O)N[C@@H](CC(C)C)C(N)=O [Peptide 4] (H-KV[dT]AMKCFLL-NH2) | 159 |  |  | 
CSCC[C@H](NC(=O)[C@H](C)NC(=O)[C@@H](NC(=O)[C@@H](NC(=O)[C@H](N)CCCCN)C(C)C)[C@@H](C)O)C(=O)N[C@@H](CCCCN)C(=O)N[C@@H](CS)C(=O)N[C@@H](Cc1ccccc1)C(=O)N[C@@H](CC(C)C)C(=O)N[C@@H](CC(C)C)C(N)=O [Peptide 2] (H-[dK]VTAMKCFLL-NH2) | 100 |  |  | 
CSCC[C@H](NC(=O)[C@@H](C)NC(=O)[C@@H](NC(=O)[C@@H](NC(=O)[C@H](N)CCCCN)C(C)C)[C@@H](C)O)C(=O)N[C@@H](CCCCN)C(=O)N[C@@H](CSSC[C@H](NC(=O)[C@H](CCCCN)NC(=O)[C@H](CCSC)NC(=O)[C@@H](C)NC(=O)[C@@H](NC(=O)[C@@H](NC(=O)[C@H](N)CCCCN)C(C)C)[C@@H](C)O)C(=O)N[C@@H](Cc1ccccc1)C(=O)N[C@@H](CC(C)C)C(=O)N[C@@H](CC(C)C)C(N)=O)C(=O)N[C@@H](Cc1ccccc1)C(=O)N[C@@H](CC(C)C)C(=O)N[C@@H](CC(C)C)C(N)=O [Peptide 14] (I: H-[dK]VT[dA]MKCFLL-NH2 / II: H-[dK]VT[dA]MKCFLL-NH2; disulfide I:7-II:7) | 12 | 92 | completely soluble | 
CSCC[C@H](NC(=O)[C@H](C)NC(=O)[C@@H](NC(=O)[C@@H](NC(=O)[C@@H](N)CCCCN)C(C)C)[C@@H](C)O)C(=O)N[C@@H](CCCCN)C(=O)N[C@@H](CS)C(=O)N[C@H](Cc1ccccc1)C(=O)N[C@@H](CC(C)C)C(=O)N[C@@H](CC(C)C)C(N)=O [Peptide 9] (H-KVTAMKC[dF]LL-NH2) | 118 |  |  | 
KVTAMKCFLL-NH2 [Peptide 1, reference compound] | 130 |  |  | 
CSCC[C@H](NC(=O)[C@H](C)NC(=O)[C@@H](NC(=O)[C@@H](NC(=O)[C@@H](N)CCCCN)C(C)C)[C@@H](C)O)C(=O)N[C@H](CCCCN)C(=O)N[C@@H](CS)C(=O)N[C@@H](Cc1ccccc1)C(=O)N[C@@H](CC(C)C)C(=O)N[C@@H](CC(C)C)C(N)=O [Peptide 7] (H-KVTAM[dK]CFLL-NH2) | 168 |  |  | 

Source: patent US12297246B2, “Interleukin-15 activity antagonist peptide” (CENTRO DE INGENIERÍA GENÉTICA Y BIOTECNOLOGÍA, priority 2017, dated 2025)
